“Also recorded” adds a separate entry of the source.
Columns and labels:
WNT1 = test: RapMIF multiplexed immunofluorescence in PC9 cells, WNT1; type: cell-based, human; conditions: 40 nM, 48 hours vs control
Source text: (§1) RapMIF: The RapMIF setup consisted of an autosampler that transferred antibodies and performed washes of the sample automatically and controlled by a custom-written python code (FIGS. 10A-10D). The buffers used during the procedure are 1×PBS (D8537, Sigma), CSM, and Fluorophore bleaching solution. PBS 1× was the wash buffer for the stabilization of the cells and the tubes. CSM was the imaging buffer that helped in the annealing of antibodies with the cells. Fluorophore bleaching solution was the strip buffer used to remove staining after each cycle. The walls on the 96-well plate for the antibodies were pre-washed with 1×PBS. The well plate was covered with foil stickers to ensure a dark condition. […] Once the cells were mounted and the antibodies and buffers were ready for transfer, automatic staining was done by running Python code. […]
(§2) Cell multiplexing: Each coverslip prepared with cells was stained with 25 markers using a total of 11-12 cycles (FIG. 10C). […] To quantify the frequencies belonging to the signal that disappears after bleaching, a Fourier analysis of before and after bleaching was performed to indicate the difference in frequencies belonging to the signal.
(§3) Image intensity: From nuclei and cytosol cell masks, the mean intensity of markers in each cell area was calculated. […]

p-EGFR (Y1068) = conditions: PC9 cells; cited from earlier work
p-AKT(S473) = test: RapMIF multiplexed immunofluorescence in PC9 cells, p-AKT; type: cell-based, human; conditions: 40 nM, 48 hours vs control
Source text: as §1, §2, §3

c-MYC = conditions: EGFRm-sensitive cells; cited from earlier work
PC9 cells [1] = conditions: 0 to 10 nM, 3-day treatment; cited from earlier work
p-ERK(T202/Y204) = test: p-ERK immunofluorescence in HCC827 cells; type: cell-based, human; conditions: 100 nM
Description: Following that, the cells were then fixed and permeabilized with 1.6% formaldehyde in 1×PBS for 10 minutes at RT and 0.5% Triton X-100 for 10 minutes at RT, respectively. The cells were then blocked using a cell staining medium (CSM) containing 0.5% BSA, and 0.02% Sodium Azide in PBS. […] HCC827 cells were stained with p-ERK overnight followed by 1-hour incubation of secondary antibodies at RT, and 10 mins DAPI staining. The cells were then imaged at 40× magnification, and the intensity levels were analyzed. […] The coverslip was mounted to an acrylic holder for multiple cycles of staining.

PC9 cells [2] = test: RapMIF pixel clustering and spatial signaling network; type: cell-based, human
Source text: Pixel clustering: Pixel phenotypes were clustered in a two-step clustering pipeline (FIG. 6A). From each pixel location within the cell segmented region, the intensity value of each marker expression was extracted. The resulting feature matrix consisted of n rows of a total number of pixels and p columns equal to the number of markers. Each column of the feature matrix was min-max normalized. Then to filter out the background, each pixel location (row in the matrix) with all markers intensity lower than 0.3 was considered as background and dropped from the feature matrix. The cut-off of 0.3 was determined empirically so noise was filtered out of the cell segmented region. The feature matrix was first clustered using the K-Means algorithm with a high number of clusters (k=60). Then, the mean expression per cluster was calculated and the cluster was merged based on hierarchical clustering on the cosine similarity of the mean expression using the average linkage method with a tolerance of 0.2 of the maximum distance between clusters. The latent feature space was obtained using Uniform manifold approximation and projection (UMAP) and cluster labels were visualized by assigning each cluster color and reprojected on the UMAP embedding. A Heatmap of the mean expression level of marker per cluster was generated to show the variation of cluster phenotype.
Spatial signaling network: The network representation of spatial signaling was represented using the spatial information of pixel clustering. Each cluster was represented by a node with node size in the network proportional to the number of pixels in the corresponding cluster. For each cluster, the distribution of the neighbor cluster was calculated by looking at the 2-hop neighbor's cluster of all pixels in the cluster. The edge color represented low (blue) to high (red) neighboring probability between two clusters.

For `C=CC(=O)Nc1cc(Nc2nccc(-c3cn(C)c4ccccc34)n2)c(OC)cc1N(C)CCN(C)C` [Osimertinib], the WNT1 signaling (WNT1) is given as “increased the WNT1 signaling”, the “p-EGFR (Y1068) level” value (p-EGFR (Y1068)) is given as “failed to alter the p-EGFR (Y1068)” and the p-AKT expression (p-AKT(S473)) is given as “consistently downregulated; also recorded: consistent downregulation”. For the same compound, the c-MYC degradation (c-MYC) was “induce the degradation of c-MYC”, the cell survival rate (PC9 cells [1]) was “decreased as the concentration has increased from 0 to 10 nM; also recorded: decreased as the concentration was increased from 0 to 10-nM” and the p-ERK level (p-ERK(T202/Y204); 6-hour treatment) was “suppressed initially”. The p-ERK level (p-ERK(T202/Y204); 12-hour treatment) was “increased”, the spatial signaling networks (PC9 cells [2]) was “altered” and the “p-β-catenin clusters 12 and 19: degree of node and neighborhoods” value (PC9 cells [2]; 40 nM vs control) was “higher degree of a node and more neighborhoods with p-EGFR clusters”. For the same compound, the “distribution of spatial signaling network maps in the cytosol (clusters 0, 1, 2)” value (PC9 cells [2]; 40 nM, 48 hours vs control) was “more dispersed (i.e., less aggregated) distribution in the cytosol; also recorded: more dispersed distribution in the cytosol”, the “proportion (frequency) of cluster 2 (WNT1) and cluster 6 (non-p-β-catenin)” value (PC9 cells [2]; after 40 nM drug treatment) was “occupied a large proportion (frequency) after drug treatment” and the “degree of the node of WNT1 in cluster 2” value (PC9 cells [2]; control vs 40 nM) was “reduced from 10 to 4”.

Source: US20240060990A1, “SPATIAL SIGNALING NETWORKS FOR MULTIPLEXED DRUG RESPONSE MEASUREMENT AND MODELING” (Georgia Tech Research Corporation, priority 2022, published 2024)
